# Data: patent publication US9119884B2, “LLP2A-bisphosphonate conjugates for osteoporosis treatment” (The Regents of the University of California, priority 2010, dated 2015)
# B1: PTH: PTH, comparator treatment given for four weeks in OVX mice (peptide, UniProt P01270 32-115, looked up)
# Parathyroid hormone: SVSEIQLMHNLGKHLNSMERVEWLRKKLQDVHNFVALGAPLAPRDAGSQRPRKKEDNVLVESHEKSLGEADKADVNVLTKAKSQ
# modifications: Parathyroid hormone
# Experiments:
# 129SvJ mice = assay type: in vivo, mouse
# integrin α4β1 = integrin α4β1 (Homo sapiens, UniProt P05556+P13612); conditions: cited from earlier work
# NOD/SCID/MPSVII mice = assay: huMSC transplantation with LLP2A-Ale in immunodeficient mice; assay type: in vivo, mouse; conditions: vertebral body, three weeks after single injection of huMSC with or without compound
# From the text: Human MSCs (huMSCs) were obtained and injected together with LLP2A-Ale to immunodeficient mice, NOD/SCID/mucopolysaccharidosis type VII (MPSVII). This mouse strain lacked the β-glucuronidase (GUSB) enzyme. The donor cells could be easily detected using biochemical detection of β-glucuronidase (See Meyerrose, T. E., et al., Stem Cells, 2007. 25(1): p. 220-7; Meyerrose, T. E., et al., Stem Cells, 2008. 26(7): p. 1713-22). At three-month of age, the mice received a single intravenous (i.v.) injection of either vehicle (100 μl PBS/mouse), huMSCs (5×10^5/100 μl/PBS/mouse), huMSCs+LLP2A (5 nM/mouse) or huMSCs+LLP2A-Ale (500 ng/mouse; total compound weight 3.5 μg, with alendronate concentration of 500 ng/mouse). The alendronate dose we used for the study was approximately one-fifth of the therapeutic dose for the treatment of osteoporosis (See Colon-Emeric, C. S., JAMA, 2006, 296(24): p. 2968-9; Ma, Y. L., et al., Endocrinology, 2003. 144(5): p. 2008-15). […] HuMSC, as shown by GUSB+red stain, were only present at the trabecular bone surface in the LLP2A-Ale-treated group (lower panel). There was no demonstrable GUSB activity in the lung, liver, kidney and LVB that received PBS (top panels) or huMSCs (middle panel). Cancellous bone mass in the vertebral body was—more than 40% higher in the group treated with MSC+LLP2A-Ale (cancellous bone volume, BV/TV 13.9±2.2%) compared to PBS (BV/TV 9.4±1.7%), MSC (BV/TV 10.2±1.9%) or MSC+LLP2A (BV/TV 10.5±0.5%) controls three weeks after a single injection of huMSC and LLP2A-Ale.
# In FIG. 8, Three-month-old MSPVII mice received a single intravenous injection of either of PBS, huMSC (5×10^5) or huMSC+LLP2A or LLP2A-Ale. The mice were sacrificed 24 hours later. Following sacrifice, small portions of organ including lumbar vertebral bodies (LVB) were harvested and frozen in Optimal Cutting Temperature embedding media. The sections were stained using naphthol-AS-BI-β-Dglucuronide (GUSB) as a substrate. Representative sections from lung, liver, kidney and lumbar vertebral (LVB) trabecular bone regions were presented. […] Isolated GUSB-positive cells were also observed within bone marrow of the LVB in […] group.
# The NOD-SCID MPSVII strain was the result of extensive backcrossing of the mutant GUSB allele from the B6.C-H-2^bm1/ByBirgus^mps/+ mouse onto the NOD/LtSz-scid background. Animals were bred and maintained at the Stem Cell Department of the UC Davis Medical Center under approved animal care protocols. Affected animals were generated by breeding mice heterozygous for the MPSVII mutation. Homozygous GUSB-deficient pups were identified at birth by biochemical analysis of toe tissue.
# Serum levels of the amino terminal propeptide of type 1 procollagen (P1NP), osteocalcin and C-terminal telopeptides of type I collagen (CTX-I) were measured using mouse sandwich ELISA kits from Biomedical Technologies (Stroughton, Mass.) or Immunodiagnostic System (Fountain Hills, Ariz.). The manufacturer's protocols were followed and all samples were assayed in duplicate. A standard curve was generated from each kit and the absolute concentrations were extrapolated from the standard curve. The coefficients of variations (CVs) for inter-assay and intra-assay measurements were less than 10% for all assays and are similar to the manufacturer's references (Yao, W., et al., Arthritis Rheum, 2008, 58(6): p. 1674-86; Yao, W., et al., Arthritis Rheum, 2008, 58(11): p. 3485-3497).
# After fixation in 4% paraformaldehyde, the right distal femurs, mid-femurs and the 5th lumbar vertebral bodies were dehydrated in graded concentrations of ethanol and xylene and embedded un-decalcified in methyl methacrylate. The frontal sections (8 μm thick) were cut using a vertical bed microtome (Leica/Jung 2265) and affixed to slides coated with a 2% gelatin solution. Unstained 8-μm-thick sections were used for assessing fluorochrome labeling and dynamic changes in bone. […]
# [1] = test system: 10-week-old ovariectomized (OVX) mice; assay: Ovariectomized (OVX) mouse model; assay type: in vivo; conditions: for maximum stress: femur three-point bending; for maximum stress / cortical bone thickness: single IV injection of conjugate or four weeks of PTH
# From the text: FIG. 21 depicts histomorphometric analyses of the 5th lumbar vertebral bodies after LLP2A-Ale treatment of 10-week-old ovariectomized (OVX) mice, showing increases in osteoblast numbers, activities and bone formation rate/bone surface (BFR/BS) post-treatment. Analyses included trabecular bone area (%), osteoblast surface (Ob/BS), mineralizing surface (MS/BS) activities and BFR/BS (P<0.05).
# Representative fluorescent images from the trabecular bone at the 5th LVB (Top panel: white arrowheads illustrate osteoblasts; Bottom panel: yellow arrows illustrate double labeled trabecular bone surfaces).
# FIG. 23 depicts histomorphometry analyses of the right mid-femurs included bone formation at the endosteal (Ec) or periosteal (Ps.) bone surfaces, and cortical bone thickness of 10-week-old ovariectomized (OVX) mice. […] Three-point bending was performed on left femurs to obtain maximum stress of the femurs.
# Short yellow arrows illustrated double labeled endocortical bone surfaces. (a, p<0.05 versus Sham; b, P<0.05 vs. OVX+PBS, c, P<0.05 vs. OVX+LLP2A; d, P<0.05 vs. OVX+Ale. Data are represented as Mean±SD).
# [2] = test system: bone marrow cells undergoing osteogenic differentiation; assay: Rainbow bead cell-binding assay; assay type: cell-based, mouse; conditions: cells cultured in osteogenic medium for 7 days, incubated with rainbow beads
# Protocol: Mouse MSCs were purchased from Invitrogen (Cat#S1502-100), cultured in osteogenic medium for 7 days and incubated with rainbow beads for one hour. […] Original magnification 10× on the right and 20× on the left of the top panel.
# A new color-encoding method that facilitates high-throughput screening of OBOC combinatorial libraries was developed. This method differs from the traditional methods used to monitor integrin expressions in the MSCs, i.e., the use of antibody-based fluorescence-activated cell sorting (FACS) or immunoblotting. In the present method, polymer beads displaying chemical compounds or families of compounds were stained with oil-based organic dyes that are used as coding tags. […] These rainbow beads were prepared in a multiplex manner such that each ligand reacted to one or a series of integrins that were coded one color, See FIG. 7 (Luo, J., et al., J Comb Chem, 2008, 10(4): p. 599-604). This rainbow bead technique was then applied to determine the integrin profile on the cell surfaces.
# In FIG. 7, bone marrow cells were cultured in osteogenic medium for 7 days and incubated with rainbow beads. The purple beads that coded with LLP2A, the ligand with high affinity and specificity against α4β1, were covered with layers of cells identified by green arrows. […]
# C57BL/6 mice = assay: Guiding GFP-labeled mouse MSCs to bone; assay type: in vivo; conditions: for osteocalcin levels: 0.9 nmol/mouse I.P. one hour after GFP-MSC I.V.
# Protocol: LLP2A-Ale or LLP2A-Ale (1) were dissolved in 0.9% normal saline and injected I.P. to the mice one hour after MSC at a final solution of 0.9 nmol/mouse. Mice were sacrificed either at 3 days or 3 weeks. Osteocalcin, a bone formation marker, was measured at both 3 days and 3 weeks post-treatments. The lumbar vertebral bodies from the 3-day treatment groups were frozen and sectioned with cryostat. The sections were then stained with anti-GFP antibody. The transplanted MSCs were stained in brown.
# integrin α4β1, sequence (P13612 34-1032): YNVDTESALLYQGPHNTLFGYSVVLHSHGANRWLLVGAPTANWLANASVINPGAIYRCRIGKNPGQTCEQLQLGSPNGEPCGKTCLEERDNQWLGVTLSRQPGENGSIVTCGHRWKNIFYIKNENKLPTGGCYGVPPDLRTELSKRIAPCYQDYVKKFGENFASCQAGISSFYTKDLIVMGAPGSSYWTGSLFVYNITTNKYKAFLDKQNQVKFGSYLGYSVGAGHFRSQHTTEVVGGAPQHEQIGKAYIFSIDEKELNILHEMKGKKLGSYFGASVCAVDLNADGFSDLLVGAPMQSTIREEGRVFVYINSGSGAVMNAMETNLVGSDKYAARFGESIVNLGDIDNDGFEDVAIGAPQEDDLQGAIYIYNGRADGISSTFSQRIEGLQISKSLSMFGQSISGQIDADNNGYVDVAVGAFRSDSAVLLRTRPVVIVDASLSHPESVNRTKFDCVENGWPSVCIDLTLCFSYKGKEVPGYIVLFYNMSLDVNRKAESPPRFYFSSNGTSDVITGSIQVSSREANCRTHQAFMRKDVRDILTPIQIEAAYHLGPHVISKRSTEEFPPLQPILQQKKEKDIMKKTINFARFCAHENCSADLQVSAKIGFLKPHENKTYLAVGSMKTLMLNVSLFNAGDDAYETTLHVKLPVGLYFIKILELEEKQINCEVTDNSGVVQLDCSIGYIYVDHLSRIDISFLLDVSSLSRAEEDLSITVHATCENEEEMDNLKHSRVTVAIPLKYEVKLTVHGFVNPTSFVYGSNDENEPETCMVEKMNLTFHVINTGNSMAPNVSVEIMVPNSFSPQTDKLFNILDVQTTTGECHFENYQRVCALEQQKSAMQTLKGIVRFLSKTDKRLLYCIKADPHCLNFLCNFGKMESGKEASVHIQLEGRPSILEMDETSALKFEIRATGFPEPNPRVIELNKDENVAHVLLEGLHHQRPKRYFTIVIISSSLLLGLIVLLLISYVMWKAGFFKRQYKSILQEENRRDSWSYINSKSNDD
# integrin α4β1, sequence (P05556 21-798): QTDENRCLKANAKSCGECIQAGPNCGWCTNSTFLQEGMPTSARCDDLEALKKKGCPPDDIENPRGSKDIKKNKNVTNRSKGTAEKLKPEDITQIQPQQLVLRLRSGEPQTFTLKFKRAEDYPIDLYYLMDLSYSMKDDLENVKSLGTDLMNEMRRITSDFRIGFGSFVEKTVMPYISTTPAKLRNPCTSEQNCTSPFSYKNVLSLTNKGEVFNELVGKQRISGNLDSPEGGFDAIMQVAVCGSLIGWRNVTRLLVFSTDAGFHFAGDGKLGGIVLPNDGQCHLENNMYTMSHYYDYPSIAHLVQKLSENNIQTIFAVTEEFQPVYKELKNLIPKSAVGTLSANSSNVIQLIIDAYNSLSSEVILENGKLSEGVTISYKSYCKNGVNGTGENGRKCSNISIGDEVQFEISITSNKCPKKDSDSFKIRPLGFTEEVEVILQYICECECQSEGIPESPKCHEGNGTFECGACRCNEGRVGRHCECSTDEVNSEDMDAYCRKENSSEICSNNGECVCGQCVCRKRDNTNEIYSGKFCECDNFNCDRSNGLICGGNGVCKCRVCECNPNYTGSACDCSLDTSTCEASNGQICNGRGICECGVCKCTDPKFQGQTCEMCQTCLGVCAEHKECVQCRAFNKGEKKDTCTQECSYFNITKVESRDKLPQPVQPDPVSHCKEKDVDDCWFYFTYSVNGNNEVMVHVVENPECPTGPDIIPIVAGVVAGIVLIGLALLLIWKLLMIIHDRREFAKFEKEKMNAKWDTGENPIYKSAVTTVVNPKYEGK
molecule,measurement,setting,value
"LLP2A: bisaryl urea peptidomimetic, highly potent and selective ligand for the activated form of α4β1 integrin [reference compound]",bone formation rate at endocortical and periosteal surfaces of the mid-femurs,129SvJ mice; four weeks after injections,significantly increased
same,proliferating cell populations (BrdU),"129SvJ mice; two days after i.v. injection, lumbar vertebral sections",increased the number of proliferating cell populations within the marrow cavity
same,IC50,integrin α4β1,2 pM
same,"cancellous bone volume, BV/TV",NOD/SCID/MPSVII mice,10.5±0.5%
same,maximum stress,[1],not significantly altered
same,cortical bone thickness,[1]; mid-femur,not significantly altered
same,cell binding to ligand-coded rainbow beads (affinity),[2],high affinity
LLP2A-Alendronate (1) [LLP2A-Ale (1)],location of transplanted MSCs (anti-GFP staining),"C57BL/6 mice; lumbar vertebral bodies, three days",observed within bone marrow and adjacent to the trabecular bone surfaces
same,osteocalcin levels,C57BL/6 mice; three days,significantly increased
same,osteocalcin levels,C57BL/6 mice; three weeks,significantly increased
"NCCCC(O)(P(=O)(O)O)P(=O)(O)O [Ale, Alendronate, reference compound]",maximum stress,[1],not significantly altered
same,cortical bone thickness,[1]; mid-femur,not significantly altered
B1,maximum stress,[1],not significantly altered
same,endocortical bone formation,"[1]; mid-femur, vs OVX",increases
same,cortical bone thickness,[1]; mid-femur,not significantly altered
